Literature values in patent US4788322A, “Process for preparing ACHPA” (Merck & Co., Inc., priority 1987, dated 1988).
Square brackets hold non-standard residues; d marks the D form. Peptide text beside a SMILES is read from it. * marks the point of attachment. Sta = CC(C)C[C@H](N)[C@@H](O)CC(=O)O; Isovaleryl = CC(C)CC(=O)*

System: hog renin
Details: after injection of hog renin into nephrectomized rats; Gross et al., Science 1972

For CC(C)CC(=O)N[C@H](C(=O)N[C@H](C(=O)N[C@@H](CC(C)C)[C@@H](O)CC(=O)N[C@@H](C)C(=O)N[C@@H](CC(C)C)[C@@H](O)CC(=O)O)C(C)C)C(C)C [pepstatin] (Isovaleryl-VV[Sta]A[Sta]-OH), which “blood pressure in vivo” value is on record?
The value was “reduces blood pressure”.
